# Structures can show the parent of a compound that is named as a salt.
# Assays:
# [1] = molecular target: T1, dipeptidyl peptidase IV (Rattus norvegicus, UniProt P14740); test: biochemical; conditions: glycyl·prolyl·β-naphthylamide, pH 7.2, 37° C., 1 hour, read-out: Dipeptidyl peptidase IV 50% inhibition activity value (converted)
# T1 construct: partially purified from rat kidney homogenate by ammonium sulfate fractionation; from tissue; host or cells: rat kidney
# [2] = system: ICR strain male mice (Crj:CD-1); test: Test for evaluating efficacy in drug-induced leukopenia (cyclophosphamide); assay type: in vivo; conditions: for number of leukocytes: cyclophosphamide 200 mg/kg i.p. Day 0
# Description: The efficacy of the compound of Example 1 in drug-induced leukopenia was evaluated according to the method of Okabe et al. (Yakuri to Chiryo (Pharmacology and Treatment), Vol. 19, No. 6, p. 55, 1991).
# ICR strain male mice (Crj:CD-1) aged 8 weeks were used in the test. The animals were divided into three groups of 3 or 4 animals each. On Day 0, cyclophosphamide was intraperitoneally administered once to all the groups in a dose of 200 mg/kg. From the next day, the following were intravenously and repeatedly administered to the groups, respectively, for 5 days (Days 1 to 5); a first group (a control group): physiological saline, a second group: the compound of Example 1 (30 mg/kg/day), and a third group: the compound of Example 1 (100 mg/kg/day). Blood was drawn from the orbital vein on Day 0 (before the administration of cyclophosphamide) and Days 2, 4, 6, 8 and 10, and the number of leukocytes was periodically measured to investigate the leukocyte-increasing effect of the compound of Example 1 on leukopenia induced by cyclophosphamide.
# [3] = system: ICR strain male mice (Crj:CD-1); test: Test for investigating the increase of leukocytes and the decrease of platelets in normal mice; assay type: in vivo; conditions: for Number of platelets / number of leukocytes: blood drawn day after last administration
# Description: ICR strain male mice (Crj:CD-1) aged 8 weeks were used in the test. The animals were divided into 5 groups of 3 to 4 animals each. The following were intravenously and repeatedly administered to the groups, respectively, for 5 days; a first group: physiological saline as solvent, a second group: the compound of Example 45 (hydrochloride of the compound of Example 1) (10 mg/kg/day), a third group: the compound of Example 45 (50 mg/kg/day), a fourth group: the compound of Example 45 (250 mg/kg/day), and a fifth group: sulphostin (WO 99/25719 and JP-A-2000-327689; (3S, PR)-3-amino-1-amino(sulfoamino)phosphinyl-2-piperidone) (50 mg/kg/day). On the day subsequent to the last day in the administration period, blood was drawn from the abdominal aorta under anesthesia and the number of leukocytes and the number of platelets were measured.
# [4] = normal mice, 10 mg/kg/day i.v. for 5 days
# [5] = normal mice, 50 mg/kg/day i.v. for 5 days
# [6] = normal mice, 250 mg/kg/day i.v. for 5 days
# T1 sequence (P14740 whole entry): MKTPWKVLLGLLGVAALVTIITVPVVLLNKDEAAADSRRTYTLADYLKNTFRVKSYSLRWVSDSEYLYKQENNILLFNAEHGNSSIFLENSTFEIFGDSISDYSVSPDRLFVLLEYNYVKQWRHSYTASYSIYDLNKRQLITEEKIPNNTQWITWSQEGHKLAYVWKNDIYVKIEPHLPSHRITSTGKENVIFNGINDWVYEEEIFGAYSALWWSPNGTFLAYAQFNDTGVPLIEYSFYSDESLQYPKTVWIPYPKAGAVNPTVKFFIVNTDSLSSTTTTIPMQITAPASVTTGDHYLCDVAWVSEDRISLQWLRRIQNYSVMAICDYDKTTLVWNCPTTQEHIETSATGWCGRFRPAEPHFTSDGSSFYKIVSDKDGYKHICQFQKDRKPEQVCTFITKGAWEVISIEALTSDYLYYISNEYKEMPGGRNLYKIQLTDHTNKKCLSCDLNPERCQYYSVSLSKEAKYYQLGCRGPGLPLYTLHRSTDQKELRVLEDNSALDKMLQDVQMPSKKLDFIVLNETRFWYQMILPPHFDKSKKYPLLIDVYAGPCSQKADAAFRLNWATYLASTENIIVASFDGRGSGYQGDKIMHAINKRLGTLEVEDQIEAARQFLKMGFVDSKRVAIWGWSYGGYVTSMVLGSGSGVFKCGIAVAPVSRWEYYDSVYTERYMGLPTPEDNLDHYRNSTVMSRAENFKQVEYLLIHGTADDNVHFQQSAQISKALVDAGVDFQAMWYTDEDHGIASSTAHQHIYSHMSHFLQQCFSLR
smiles,measurement,setting,value
"CCCNP(N)(=O)N1CCC[C@H](N)C1=O (mixture of isomers) [Example 15, (3S, P (RS))-3-amino-1-amino(n-propylamino)phosphinyl-2-piperidone]",IC50,[1],7.26 µM
"N[C@H]1CCCN(P(N)(=O)NC(=O)c2ccccc2)C1=O (mixture of isomers) [Example 39, (3S, P (RS))-3-amino-1-amino(benzoylamino)phosphinyl-2-piperidone]",IC50,[1],2.4 µM
"CCCC(=O)NP(N)(=O)N1CCC[C@H](N)C1=O (mixture of isomers) [Example 51, (3S, P (SR))-3-amino-1-amino(n-butanoylamino)phosphinyl-2-piperidone]",IC50,[1],1.14 µM
"CC(C)(C)CC(=O)NP(N)(=O)N1CCC[C@H](N)C1=O (mixture of isomers) [Example 53, (3S, P (SR))-3-amino-1-amino(t-butylacetylamino)phosphinyl-2-piperidone]",IC50,[1],1.48 µM
"N[C@H]1CCCN(P(N)(=O)NC(=O)C2CCCCC2)C1=O (mixture of isomers) [Example 55, (3S, P (SR))-3-amino-1-amino(cyclohexanecarbonylamino)phosphinyl-2-piperidone]",IC50,[1],1.59 µM
"N[C@H]1CCCN(P(N)(=O)NC(=O)COc2ccccc2)C1=O (mixture of isomers) [Example 57, (3S, P (SR))-3-amino-1-amino(phenoxyacetylamino)phosphinyl-2-piperidone]",IC50,[1],0.187 µM
"N[C@H]1CCCN(P(N)(=O)NC(=O)CCc2ccccc2)C1=O (mixture of isomers) [Example 59, (3S, P (SR))-3-amino-1-amino(3-phenylpropanoylamino)phosphinyl-2-piperidone]",IC50,[1],0.894 µM
"COc1ccc(C(=O)NP(N)(=O)N2CCC[C@H](N)C2=O)cc1 (mixture of isomers) [Example 61, (3S, P (SR))-3-amino-1-amino(4-methoxybenzoylamino)phosphinyl-2-piperidone]",IC50,[1],1.07 µM
"N[C@H]1CCCN(P(N)(=O)Nc2ccccc2)C1=O (single isomer, unassigned) [Example 17, (3S, P (R or S))-3-amino-1-amino(phenylamino)phosphinyl-2-piperidone]",IC50,[1],5.59 µM
"CC(=O)NP(N)(=O)N1CCC[C@H](N)C1=O (single isomer, unassigned) [Example 48, (3S, P (R or S))-3-amino-1-amino(acetylamino)phosphinyl-2-piperidone ½ fumarate]",IC50,[1],1.62 µM
"N[C@H]1CCCN(P(N)(N)=O)C1=O [Example 1, (3S)-3-amino-1-diaminophosphinyl-2-piperidone]",IC50,[1],0.0885 µM
same,number of leukocytes,"[2]; 30 mg/kg/day i.v. Days 1 to 5, Day 0 (before cyclophosphamide)",33 ± 7.8 ×100/millimeter cube
same,number of leukocytes,"[2]; 30 mg/kg/day i.v. Days 1 to 5, Day 2",23 ± 14.2 ×100/millimeter cube
same,number of leukocytes,"[2]; 30 mg/kg/day i.v. Days 1 to 5, Day 4",7 ± 1.8 ×100/millimeter cube
same,number of leukocytes,"[2]; 30 mg/kg/day i.v. Days 1 to 5, Day 6",25 ± 6.2 ×100/millimeter cube
same,number of leukocytes,"[2]; 30 mg/kg/day i.v. Days 1 to 5, Day 8",108 ± 52.8 ×100/millimeter cube
same,number of leukocytes,"[2]; 30 mg/kg/day i.v. Days 1 to 5, Day 10",58 ± 16.1 ×100/millimeter cube
same,number of leukocytes relative to Day 0,"[2]; 30 mg/kg/day, Day 0",100%
same,number of leukocytes relative to Day 0,"[2]; 30 mg/kg/day, Day 2",70%
same,number of leukocytes relative to Day 0,"[2]; 30 mg/kg/day, Day 4",21%
same,number of leukocytes relative to Day 0,"[2]; 30 mg/kg/day, Day 6",76%
same,number of leukocytes relative to Day 0,"[2]; 30 mg/kg/day, Day 8",327%
same,number of leukocytes relative to Day 0,"[2]; 30 mg/kg/day, Day 10",176%
same,number of leukocytes,"[2]; 100 mg/kg/day i.v. Days 1 to 5, Day 0 (before cyclophosphamide)",81 ± 38.7 ×100/millimeter cube
same,number of leukocytes,"[2]; 100 mg/kg/day i.v. Days 1 to 5, Day 2",25 ± 8.3 ×100/millimeter cube
same,number of leukocytes,"[2]; 100 mg/kg/day i.v. Days 1 to 5, Day 4",13 ± 6.8 ×100/millimeter cube
same,number of leukocytes,"[2]; 100 mg/kg/day i.v. Days 1 to 5, Day 6",124 ± 144.2 ×100/millimeter cube
same,number of leukocytes,"[2]; 100 mg/kg/day i.v. Days 1 to 5, Day 8",139 ± 36.7 ×100/millimeter cube
same,number of leukocytes,"[2]; 100 mg/kg/day i.v. Days 1 to 5, Day 10",49 ± 7.3 ×100/millimeter cube
same,number of leukocytes relative to Day 0,"[2]; 100 mg/kg/day, Day 0",100%
same,number of leukocytes relative to Day 0,"[2]; 100 mg/kg/day, Day 2",31%
same,number of leukocytes relative to Day 0,"[2]; 100 mg/kg/day, Day 4",16%
same,number of leukocytes relative to Day 0,"[2]; 100 mg/kg/day, Day 6",153%
same,number of leukocytes relative to Day 0,"[2]; 100 mg/kg/day, Day 8",172%
same,number of leukocytes relative to Day 0,"[2]; 100 mg/kg/day, Day 10",60%
same,effect in increasing the number of leukocytes (in words),[2]; data on Day 8,very effective in increasing the number of leukocytes
same,recovery of the number of leukocytes to the initial value after the administration of cyclophosphamide,"[2]; groups treated with 30 and 100 mg/kg/day, control group requires 8 days",6 days
"N[C@H]1CCCN(P(=O)(Nc2ccccc2)Nc2ccccc2)C1=O [Example 11, (3S)-3-amino-1-bis(phenylamino)phosphinyl-2-piperidone]",IC50,[1],43.6 µM
"CN[C@H]1CCCN(P(N)(N)=O)C1=O [Example 22, (3S)-3-methylamino-1-diaminophosphinyl-2-piperidone]",IC50,[1],1.41 µM
"CCCN[C@H]1CCCN(P(N)(N)=O)C1=O [Example 25, (3S)-3-n-propylamino-1-diaminophosphinyl-2-piperidone]",IC50,[1],3.67 µM
"CC(C)N[C@H]1CCCN(P(N)(N)=O)C1=O [Example 28, (3S)-3-isopropylamino-1-diaminophosphinyl-2-piperidone]",IC50,[1],17.9 µM
"CCCCN[C@H]1CCCN(P(N)(N)=O)C1=O [Example 31, (3S)-3-n-butylamino-1-diaminophosphinyl-2-piperidone]",IC50,[1],3.75 µM
"NP(N)(=O)N1CCC[C@H](NCc2ccccc2)C1=O [Example 34, (3S)-3-benzylamino-1-diaminophosphinyl-2-piperidone]",IC50,[1],3.9 µM
"NP(N)(=O)N1CCC[C@H](NCc2ccco2)C1=O [Example 37, (3S)-3-furfurylamino-1-diaminophosphinyl-2-piperidone]",IC50,[1],7.71 µM
"N[C@@H]1CCCN(P(N)(N)=O)C1=O [Example 42, (3R)-3-amino-1-diaminophosphinyl-2-piperidone]",IC50,[1],0.0484 µM
"N[C@H]1CCCCN(P(N)(N)=O)C1=O [Example 43, (3S)-3-amino-1-diaminophosphinyl-2-perhydroazepinone]",IC50,[1],0.107 µM
"Cl.N[C@H]1CCCN(P(N)(N)=O)C1=O [Example 45, (3S)-3-amino-1-diaminophosphinyl-2-piperidone hydrochloride]",factor by which the number of leukocytes is larger than that of the control group,[3]; 10 mg/kg/day group,4.2
same,factor by which the number of leukocytes is larger than that of the control group,[3]; 50 mg/kg/day group,3.8
same,factor by which the number of leukocytes is larger than that of the control group,[3]; 250 mg/kg/day group,6.7
same,Number of platelets,[3]; [4],76.0 ± 7.8 ×10000/millimeter cube
same,number of leukocytes,[3]; [4],25 ± 13 ×100/millimeter cube
same,Number of platelets,[3]; [5],84.9 ± 8.3 ×10000/millimeter cube
same,number of leukocytes,[3]; [5],23 ± 19 ×100/millimeter cube
same,Number of platelets,[3]; [6],81.1 ± 8.0 ×10000/millimeter cube
same,number of leukocytes,[3]; [6],40 ± 18 ×100/millimeter cube
same,influence on the number of platelets (in words),"[3]; normal mice, all the groups (10, 50, 250 mg/kg/day)",did not decrease the number of platelets
"N[C@H]1CCCN([P@@](N)(=O)NS(=O)(=O)O)C1=O [sulphostin, (3S, PR)-3-amino-1-amino(sulfoamino)phosphinyl-2-piperidone, reference compound]",number of platelets as compared with the control group,"[3]; 50 mg/kg/day, decreased",73%
same,Number of platelets,[3]; [5],57.1 ± 5.1 ×10000/millimeter cube
same,number of leukocytes,[3]; [5],15 ± 5 ×100/millimeter cube
